{
  "source": "paper PMC5627017",
  "about": "(Frontiers in Pharmacology, 2017)",
  "key": {"[1]": {"molecular_target": "T1, H1R endogenously expressed in HeLa cells (Homo sapiens, UniProt P35367)", "T1 sequence (P35367 whole entry)": "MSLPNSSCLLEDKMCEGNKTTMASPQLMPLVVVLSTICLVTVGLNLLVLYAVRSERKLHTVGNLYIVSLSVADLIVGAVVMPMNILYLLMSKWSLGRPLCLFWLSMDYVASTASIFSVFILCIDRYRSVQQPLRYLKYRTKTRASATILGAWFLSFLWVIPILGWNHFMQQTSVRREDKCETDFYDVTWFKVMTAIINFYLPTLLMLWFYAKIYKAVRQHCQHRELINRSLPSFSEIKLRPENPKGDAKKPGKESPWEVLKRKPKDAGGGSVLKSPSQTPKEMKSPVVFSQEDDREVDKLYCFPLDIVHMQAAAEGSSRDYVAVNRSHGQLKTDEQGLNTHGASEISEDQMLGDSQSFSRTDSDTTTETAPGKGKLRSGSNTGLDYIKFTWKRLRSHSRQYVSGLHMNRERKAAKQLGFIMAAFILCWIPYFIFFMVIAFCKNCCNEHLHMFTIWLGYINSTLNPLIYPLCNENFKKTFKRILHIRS", "test": "DMR receptor recovery after washout", "details": "10x Ki pre-incubation, 1 h and 2 h after washout", "description": "For the measurement of DMR in HeLa cells upon treatment by agonists and antagonists, a resonant waveguide grating (RWG) biosensor method was used.\nHeLa cells were grown in DMEM High Glucose medium with L-Glutamine supplemented with 10% FBS and 1x penicillin/streptomycin [all reagents were obtained from Capricorn Scientific GmbH (Ebsdorfergrund, Germany)] and incubated in humidified atmosphere at 37°C and 5% CO2 in air.\nAs vehicle control wells with medium/DMSO treated cells were included. The LFC plate was incubated overnight in a humidified atmosphere at 37°C and 5% CO2 in air. On the next day assay buffer [HBSS (Sigma–Aldrich), 20 mM HEPES (Sigma–Aldrich), 0.5% (v/v) DMSO] was adapted to room temperature before use. 22–24 h after cell seeding antagonists were removed from the LFC plate and wells were washed four times with label-free assay buffer (25 μL/ well). The total assay volume after the washing step was 30 μL/ well.\nIn all experiments a DMSO concentration of 0.5% (v/v) was not exceeded. The LFC plate was placed in an EnSpire® Multimode Plate Reader equipped with Corning® Epic® Label-free technology.\nData was analyzed individually for each quadrant of the 384 well LFC plate using GraphPad Prism.\nDepicted values represent mean and standard deviation of two independent experiments."}, "[2]": {"molecular_target": "T1, H1R endogenously expressed in HeLa cells"}, "[3]": {"molecular_target": "T1, H1R endogenously expressed in HeLa cells", "remark": "listed apart in the source", "description": "(1) normalizedfluorescentresponse=FHA−Fb/Ft−Fb\nThe AUC was quantified using GraphPad Prism (GraphPad Software, San Diego, CA, United States). Settings were as such that peaks were ignored when there was less than 1% difference between min and max fluorescence and/or peaks shaped by fewer than 10 data points. The resulting dose-response curves were analyzed by non-linear regression according to Eq. 2."}, "H1R [4]": {"tested_on": "H1R", "set-up": "method as in Slack et al., 2011a,b", "details": "ex vivo organ bath, antagonists continuously removed; ref Slack et al., 2011a,b; cited from earlier work"}, "[5]": {"molecular_target": "T1, H1R endogenously expressed in HeLa cells", "test": "Receptor recovery of calcium mobilization after antagonist washout", "assay_type": "cell-based", "set-up": "HeLa cells, endogenously expressing the H1R at low, but physiological relevant densities, were used in both assays; endogenous in cells; host or cells: HeLa cells (in-house cell biobank)", "details": "for RecT (receptor recovery time), calcium mobilization: reciprocal of krec", "protocol": "HeLa cells were cultured as described above. HeLa cells were lifted from a subconfluent dish by incubating with a 1x trypsin solution for 4 min. Cells were then seeded in a black, clear bottom 96-well plate, with 2 × 10^4 cells per well. Subsequently, the cells were pre-incubated overnight in culture medium with a range of antagonist concentrations or without antagonist, as is specified per assay format below. After 18–20 h, assay buffer was prepared by supplementing HBSS with 20 mM HEPES pH 7.4 and 2.5 mM probenecid (from a 2.5 × 10^-1 M stock in water). Dye solution was then prepared by dissolving one aliquot of Fluo4 NW in 22 mL assay buffer. Medium was aspirated and Fluo4 NW dye solution was supplemented to the cells and incubated for an hour at 37°C in the presence of the respective antagonist. After labeling the cells with Fluo4 NW, readout of the calcium response was measured per individual well in series.\nOne 96-well plate with HeLa cells was separated into four sections and each section was pre-incubated with a respective 10 times Ki concentrations of antihistamine or vehicle condition. […] Following Fluo4 NW loading in the presence of the respective concentration antihistamine, cells were washed and reconstituted in 100 μL assay buffer that was pre-heated to 37°C (t0). […] The first measurement was started approximately 2 min after washing the cells and subsequent wells were measured with 75 s intervals. […] The data was analyzed using non-linear regression with a one-phase association model in GraphPad Prism according to Eq. 3.\n(3) Y=Y0+(Ymax−Y0)×(1−e^(−krec×t))\nFor all other antihistamines a free fit of Ymax was allowed, reported in the results as the steady-state recovery (%). Receptor recovery times (RecT) were calculated for each experiment as the reciprocal of the krec. Reported krec and RecT values are the mean ± SEM of ≥3 experiments."}, "H1R [6]": {"tested_on": "H1R", "set-up": "method as in Gillard et al., 2002; Schoepke et al., 2013", "details": "ref Gillard et al., 2002; Schoepke et al., 2013; cited from earlier work"}, "[7]": {"details": "10x Ki pre-incubation, washout, 37°C, mean ± SEM of ≥3"}},
  "note": "Read-outs that look alike come from different tables or passages of the source.",
  "data": [
    {"smiles": "Cc1ccc(/C(=C\\CN2CCCC2)c2ccccn2)cc1", "note": "[Triprolidine, triprolidine]", "values": [
      {"measurement": "insurmountable antagonism of histamine DMR response after washout (in words)", "setting": "[1]", "result": "showed insurmountable antagonism, but this was the same at 1 and 2 h"}
    ]},
    {"smiles": "NCCc1c[nH]cn1", "note": "[histamine]", "values": [
      {"measurement": "Hill slope of histamine, DMR (AUC)", "setting": "[2]; AUC", "result": 0.88},
      {"measurement": "Hill slope of histamine, DMR (peak response)", "setting": "[2]; peak response", "result": 0.92},
      {"measurement": "Hill slope of histamine, calcium mobilization", "setting": "[3]", "result": "1.1 ± 0.1"}
    ]},
    {"smiles": "O=c1c2ccccc2c(Cc2ccc(Cl)cc2)nn1C[C@H]1CCCN1CCCCc1ccc(OCCCN2CCCCCC2)cc1", "note": "[GSK1004723]", "values": [
      {"measurement": "inhibition of histamine-induced, H1R mediated bronchial contraction (in words)", "setting": "H1R [4]", "result": "retained a long inhibition"}
    ]},
    {"smiles": "CN(C)CC/C=C1/c2ccccc2COc2ccc(CC(=O)O)cc21", "note": "[Olopatadine, olopatadine]", "values": [
      {"measurement": "krec (recovery rate of histamine induced calcium mobilization)", "setting": "[5]", "result": "0.006 ± 0.001", "unit": "min⁻¹"},
      {"measurement": "recovery of histamine induced calcium mobilization after washout (in words)", "setting": "[5]", "result": "even more delayed"},
      {"measurement": "RecT (receptor recovery time), calcium mobilization", "setting": "[5]; [7]", "result": "226 ± 60", "unit": "min"},
      {"measurement": "antagonism of histamine-induced calcium mobilization after overnight pre-incubation (in words)", "setting": "[3]", "result": "full insurmountable inhibition"},
      {"measurement": "insurmountable antagonism of histamine DMR response after washout (in words)", "setting": "[1]", "result": "pronounced"},
      {"measurement": "suppression of maximal histamine DMR response after washout (in words)", "setting": "[1]", "result": "suppressed the Emax up to 2 h"}
    ]},
    {"smiles": "O=C(O)COCCN1CCN([C@H](c2ccccc2)c2ccc(Cl)cc2)CC1", "note": "[Levocetirizine, levocetirizine]", "values": [
      {"measurement": "krec (recovery rate of histamine induced calcium mobilization)", "setting": "[5]; 10x Ki overnight pre-incubation, washout, 10^-5 M histamine, 37°C, mean ± SEM of ≥3", "result": "0.014 ± 0.003", "unit": "min⁻¹"},
      {"measurement": "recovery of histamine induced calcium mobilization after washout (in words)", "setting": "[5]; 10x Ki pre-incubation, 10^-5 M histamine", "result": "even more delayed"},
      {"measurement": "Steady-state recovery (%)", "setting": "[5]; fitted Ymax of histamine-induced calcium response after washout, relative to vehicle pre-treated cells", "result": "104 ± 10", "unit": "%"},
      {"measurement": "RecT (receptor recovery time), calcium mobilization", "setting": "[5]; [7]", "result": "87 ± 20", "unit": "min"},
      {"measurement": "in vivo efficacy after depletion of free concentrations in the blood (in words)", "setting": "H1R [6]", "result": "hysteresis of efficacy"},
      {"measurement": "antagonism of histamine-induced calcium mobilization after overnight pre-incubation (in words)", "setting": "[3]; HeLa cells, increasing antagonist and histamine concentrations", "result": "full insurmountable inhibition"},
      {"measurement": "insurmountable antagonism of histamine DMR response after washout (in words)", "setting": "[1]", "result": "pronounced"},
      {"measurement": "suppression of maximal histamine DMR response after washout (in words)", "setting": "[1]", "result": "suppressed the Emax up to 2 h"}
    ]},
    {"smiles": "CN1CCCC(n2nc(Cc3ccc(Cl)cc3)c3ccccc3c2=O)CC1", "note": "(centres unmarked) [azelastine]", "values": [
      {"measurement": "inhibition of histamine-induced, H1R mediated bronchial contraction (in words)", "setting": "H1R [4]", "result": "retained a long inhibition"}
    ]}
  ]
}
